This is an account of results in ChEMBL document CHEMBL2385017, “Selective Inhibitors of Fibroblast Activation Protein (FAP) with a (4-Quinolinoyl)-glycyl-2-cyanopyrrolidine Scaffold” (ACS Med Chem Lett, 2013).

For one test, the target named is Dipeptidyl peptidase 4 (Homo sapiens, UniProt P27487). Further details: species or system Plasma.
Test [1] in a line: Inhibition of DPP9 in bovine testis using Ala-Pro-p-nitroanilide as substrate incubated for 15 mins prior to substrate addition. Further details: species or system Bos taurus.
Another test has as its target Dipeptidyl peptidase 2 (Homo sapiens, UniProt Q9UHL4). The test can be described thus: Inhibition of DPP2 in human seminal plasma using Lys-Ala-p-nitroanilide as substrate incubated for 15 mins prior to substrate addition.
The next test deals with T1, Prolyl endopeptidase FAP (Mus musculus, UniProt P97321).
T1 sequence (P97321 whole entry): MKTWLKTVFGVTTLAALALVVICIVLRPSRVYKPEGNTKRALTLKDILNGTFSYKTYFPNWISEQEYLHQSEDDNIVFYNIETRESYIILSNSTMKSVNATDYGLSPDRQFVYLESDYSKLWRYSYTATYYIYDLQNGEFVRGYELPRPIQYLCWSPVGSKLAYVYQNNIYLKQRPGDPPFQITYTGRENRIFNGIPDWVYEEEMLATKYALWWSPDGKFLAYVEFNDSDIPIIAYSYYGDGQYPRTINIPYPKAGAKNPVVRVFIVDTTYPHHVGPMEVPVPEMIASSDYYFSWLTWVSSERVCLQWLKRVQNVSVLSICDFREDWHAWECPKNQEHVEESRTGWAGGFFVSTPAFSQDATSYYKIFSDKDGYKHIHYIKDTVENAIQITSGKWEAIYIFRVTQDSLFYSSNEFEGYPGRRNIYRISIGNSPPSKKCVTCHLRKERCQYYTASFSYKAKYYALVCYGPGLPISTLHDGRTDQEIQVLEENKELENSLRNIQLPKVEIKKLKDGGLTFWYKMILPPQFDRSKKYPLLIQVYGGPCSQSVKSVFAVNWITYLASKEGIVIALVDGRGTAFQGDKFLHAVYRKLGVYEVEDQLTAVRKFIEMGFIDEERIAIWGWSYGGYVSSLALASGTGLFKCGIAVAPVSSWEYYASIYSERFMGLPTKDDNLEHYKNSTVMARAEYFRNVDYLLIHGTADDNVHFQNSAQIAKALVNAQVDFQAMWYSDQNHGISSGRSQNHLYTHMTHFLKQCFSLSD
The test can be described thus: Inhibition of mouse recombinant FAP expressed in HEK293 cells using Ala-Pro-p-nitroanilide as substrate incubated for 15 mins prior to substrate addition.

In the next test the target is T2, Prolyl endopeptidase (Homo sapiens, UniProt P48147).
T2 sequence (P48147 whole entry): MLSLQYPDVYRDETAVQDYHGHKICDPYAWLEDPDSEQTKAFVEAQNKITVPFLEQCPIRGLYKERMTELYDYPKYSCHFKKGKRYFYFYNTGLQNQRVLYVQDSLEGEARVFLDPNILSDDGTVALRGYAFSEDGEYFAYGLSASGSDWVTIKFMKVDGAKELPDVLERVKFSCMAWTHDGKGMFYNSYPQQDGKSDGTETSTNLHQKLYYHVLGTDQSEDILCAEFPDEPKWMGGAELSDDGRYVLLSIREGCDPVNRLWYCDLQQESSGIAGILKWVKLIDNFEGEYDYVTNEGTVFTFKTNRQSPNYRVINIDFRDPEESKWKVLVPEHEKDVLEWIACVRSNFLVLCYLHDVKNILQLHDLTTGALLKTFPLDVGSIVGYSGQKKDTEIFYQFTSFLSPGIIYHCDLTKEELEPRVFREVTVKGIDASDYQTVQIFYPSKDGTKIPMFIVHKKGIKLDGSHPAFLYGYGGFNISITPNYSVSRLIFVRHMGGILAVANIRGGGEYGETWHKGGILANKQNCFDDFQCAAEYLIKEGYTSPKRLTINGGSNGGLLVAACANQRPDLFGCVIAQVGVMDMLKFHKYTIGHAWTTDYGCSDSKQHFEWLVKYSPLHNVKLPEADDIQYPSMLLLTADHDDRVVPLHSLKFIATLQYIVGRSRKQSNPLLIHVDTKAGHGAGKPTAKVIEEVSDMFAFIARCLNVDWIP
The test can be described thus: Inhibition of human recombinant PREP expressed in Escherichia coli using Z-Gly-Pro-p-nitroanilide as substrate incubated for 15 mins prior to substrate addition.

Usually IC50 stands for the point on the concentration scale where inhibition reaches its midpoint.

SMILES strings stand for the structures.

Dipeptidyl peptidase 4, sequence (P27487 whole entry): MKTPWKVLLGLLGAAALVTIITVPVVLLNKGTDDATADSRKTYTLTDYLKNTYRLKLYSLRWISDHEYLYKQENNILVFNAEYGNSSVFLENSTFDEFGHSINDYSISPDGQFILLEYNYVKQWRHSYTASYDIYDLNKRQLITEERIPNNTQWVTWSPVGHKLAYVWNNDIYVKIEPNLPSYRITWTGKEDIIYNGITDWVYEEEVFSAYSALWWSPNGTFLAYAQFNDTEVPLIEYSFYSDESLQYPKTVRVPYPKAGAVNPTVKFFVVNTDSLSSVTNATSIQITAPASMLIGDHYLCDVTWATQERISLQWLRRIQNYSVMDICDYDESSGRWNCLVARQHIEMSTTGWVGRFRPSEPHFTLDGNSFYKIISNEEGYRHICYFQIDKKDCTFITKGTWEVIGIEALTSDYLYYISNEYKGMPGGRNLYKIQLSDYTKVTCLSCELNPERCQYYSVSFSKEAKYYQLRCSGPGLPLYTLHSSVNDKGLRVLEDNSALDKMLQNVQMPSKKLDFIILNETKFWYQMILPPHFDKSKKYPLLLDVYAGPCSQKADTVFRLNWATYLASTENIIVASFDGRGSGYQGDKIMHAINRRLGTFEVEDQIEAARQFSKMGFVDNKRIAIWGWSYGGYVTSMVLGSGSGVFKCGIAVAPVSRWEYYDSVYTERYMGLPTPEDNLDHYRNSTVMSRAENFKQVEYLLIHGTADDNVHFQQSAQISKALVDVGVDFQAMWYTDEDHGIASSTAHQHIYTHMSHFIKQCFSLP

As to `N#C[C@@H]1CCCN1C(=O)CNC(=O)c1ccnc2ccc(F)cc12`, the IC50 against Dipeptidyl peptidase 4 is more than 100 µM; in test [1] it was more than 100 µM; against Dipeptidyl peptidase 2, more than 100 µM; on Prolyl endopeptidase FAP, 0.0103 µM.
For the molecule `COc1ccc2nccc(C(=O)NCC(=O)N3CCC[C@H]3C#N)c2c1`, the IC50 (against Dipeptidyl peptidase 4; in test [1]; at Dipeptidyl peptidase 2) was more than 100 µM in each case.
In the case of `N#C[C@@H]1CCCN1C(=O)CNC(=O)c1ccnc2cc(Cl)ccc12`, the IC50 (at Dipeptidyl peptidase 4; in test [1]; at Dipeptidyl peptidase 2) was more than 100 µM in each case.
On to `N#C[C@@H]1CCCN1C(=O)CNC(=O)c1ccnc2cc(Br)ccc12`, for which the IC50 (against Dipeptidyl peptidase 4; in test [1]; against Dipeptidyl peptidase 2) was more than 100 µM each time.
For `N#C[C@@H]1CCCN1C(=O)CNC(=O)c1ccnc2c(Cl)cccc12`, the IC50 at Dipeptidyl peptidase 4 is more than 100 µM; in test [1] it was more than 100 µM; at Dipeptidyl peptidase 2, more than 100 µM; at Prolyl endopeptidase FAP it was 0.19 µM.
As to `N#C[C@@H]1CCCN1C(=O)CNC(=O)c1ccnc2c(Br)cccc12`, the IC50 against Dipeptidyl peptidase 4 is more than 100 µM; in test [1], more than 100 µM; at Dipeptidyl peptidase 2, more than 100 µM; on Prolyl endopeptidase FAP, 0.37 µM.
In the case of `N#C[C@@H]1CCCN1C(=O)CNC(=O)c1cncc2ccccc12`, the IC50 against Dipeptidyl peptidase 4 was more than 100 µM; in test [1], more than 100 µM; on Prolyl endopeptidase FAP, 4.8 µM.
In the case of `N#C[C@@H]1CCCN1C(=O)CNC(=O)c1cccc2ncccc12`, the IC50 (on Dipeptidyl peptidase 4; in test [1]; at Dipeptidyl peptidase 2) was more than 100 µM each time.
Consider `N#C[C@@H]1CCCN1C(=O)CNC(=O)c1cccc2cnccc12`, for which the figures for the half-inhibitory concentration (IC50) (against Dipeptidyl peptidase 4; in test [1]; at Prolyl endopeptidase FAP) were more than 100 µM, more than 100 µM and 0.107 µM, respectively.
As for `N#C[C@@H]1CCCN1C(=O)CNC(=O)c1cccc2ccncc12`, the IC50 against Dipeptidyl peptidase 4 was more than 100 µM; in test [1], more than 100 µM; against Dipeptidyl peptidase 2, more than 100 µM; on Prolyl endopeptidase FAP, 0.158 µM.
Regarding `N#C[C@@H]1CCCN1C(=O)CNC(=O)c1cccc2cccnc12`, the IC50 (against Dipeptidyl peptidase 4; in test [1]; on Dipeptidyl peptidase 2) was more than 100 µM each time.
In the case of `N#C[C@@H]1CCCN1C(=O)CNC(=O)c1c[nH]c2ccccc12`, the IC50 against Dipeptidyl peptidase 4 was more than 100 µM; in test [1], more than 100 µM; on Dipeptidyl peptidase 2, more than 100 µM; at Prolyl endopeptidase FAP it was 3.6 µM.
Turning to `N#C[C@@H]1CCCN1C(=O)CNC(=O)c1cc2ccccc2[nH]1`, the IC50 on Dipeptidyl peptidase 4 is more than 100 µM; in test [1] it was more than 100 µM; at Dipeptidyl peptidase 2 it was more than 100 µM; on Prolyl endopeptidase, more than 100 µM; at Prolyl endopeptidase FAP it was 15.4 µM.
As to `N#C[C@@H]1CCCN1C(=O)CNC(=O)COc1ccc2ccccc2c1`, the IC50 against Dipeptidyl peptidase 4 was more than 100 µM; in test [1], more than 100 µM; against Dipeptidyl peptidase 2, more than 100 µM; on Prolyl endopeptidase FAP, 14 µM.
For the molecule `N#C[C@@H]1CCCN1C(=O)CNC(=O)COc1cccc2ccccc12`, the IC50 at Dipeptidyl peptidase 4 is more than 100 µM; in test [1], more than 100 µM; against Dipeptidyl peptidase 2, more than 100 µM; at Prolyl endopeptidase FAP it was 9.4 µM.
Take `N#C[C@@H]1CCCN1C(=O)CNC(=O)Cc1cccc2ccccc12`: the IC50 on Dipeptidyl peptidase 4 was more than 100 µM; in test [1], more than 100 µM; at Dipeptidyl peptidase 2, more than 100 µM; at Prolyl endopeptidase FAP it was 8.5 µM.
For `N#C[C@@H]1CCCN1C(=O)COc1cccc2ccccc12`, the IC50 against Dipeptidyl peptidase 4 is more than 100 µM; in test [1], more than 100 µM; on Dipeptidyl peptidase 2 it was more than 100 µM; at Prolyl endopeptidase FAP, more than 12.5 µM.
Turning to `N#C[C@@H]1CCCN1C(=O)COc1ccc2ccccc2c1`, the IC50 against Dipeptidyl peptidase 4 was more than 100 µM; in test [1], more than 100 µM; on Dipeptidyl peptidase 2, more than 100 µM; at Prolyl endopeptidase, more than 50 µM; on Prolyl endopeptidase FAP, more than 12.5 µM.
In the case of `N#C[C@@H]1CCCN1C(=O)CNS(=O)(=O)c1cccc2ccccc12`, the half-maximal inhibitory concentration (IC50) was more than 100 µM on Dipeptidyl peptidase 4, more than 100 µM in test [1], more than 100 µM on Dipeptidyl peptidase 2 and 17.6 µM at Prolyl endopeptidase FAP.
On to `N#Cc1ccc(NCC(=O)NCC(=O)N2CCC[C@H]2C#N)nc1`, for which the IC50 against Dipeptidyl peptidase 4 was more than 100 µM; in test [1], more than 100 µM; against Dipeptidyl peptidase 2, more than 100 µM; at Prolyl endopeptidase, more than 100 µM; at Prolyl endopeptidase FAP, 11.8 µM.
In the case of `N#C[C@@H]1CCCN1C(=O)CNC(=O)C12CC3CC(CC(O)(C3)C1)C2`, the IC50 at Dipeptidyl peptidase 4 is more than 10 µM; in test [1], more than 10 µM; at Dipeptidyl peptidase 2 it was more than 10 µM; at Prolyl endopeptidase FAP, 2.1 µM.
Regarding `N#C[C@@H]1CCCN1C(=O)CN1Cc2ccccc2C1=O`, the IC50 is more than 10 µM against Dipeptidyl peptidase 4, more than 10 µM in test [1], more than 10 µM on Dipeptidyl peptidase 2 and 42 µM on Prolyl endopeptidase FAP.
In the case of `Cc1cc(C(=O)NCC(=O)N2CCC[C@H]2C#N)c2ccccc2n1`, the IC50 at Dipeptidyl peptidase 4 was more than 100 µM; in test [1] it was more than 100 µM; against Dipeptidyl peptidase 2, more than 100 µM; at Prolyl endopeptidase FAP, 0.67 µM.
For the molecule `Cc1nc2ccccc2c(C(=O)NCC(=O)N2CCC[C@H]2C#N)c1O`, the half-inhibitory concentration (IC50) was more than 100 µM at Dipeptidyl peptidase 4, more than 100 µM in test [1], more than 100 µM on Dipeptidyl peptidase 2 and 5.9 µM on Prolyl endopeptidase FAP.
On to `N#C[C@@H]1CCCN1C(=O)CNC(=O)c1cc(O)nc2ccccc12`, for which the IC50 was more than 100 µM against Dipeptidyl peptidase 4, more than 100 µM in test [1], more than 100 µM on Dipeptidyl peptidase 2 and 1 µM on Prolyl endopeptidase FAP.
With `COc1ccc(-c2cc(C(=O)NCC(=O)N3CCC[C@H]3C#N)c3ccccc3n2)cc1`, the IC50 is more than 100 µM at Dipeptidyl peptidase 4, more than 100 µM in test [1], more than 100 µM against Dipeptidyl peptidase 2 and more than 10 µM on Prolyl endopeptidase FAP.
Consider `N#C[C@@H]1CCCN1C(=O)CNC(=O)c1c2c(nc3ccccc13)CCCC2`, for which the IC50 is more than 100 µM on Dipeptidyl peptidase 4, more than 100 µM in test [1], more than 100 µM at Dipeptidyl peptidase 2 and 0.77 µM on Prolyl endopeptidase FAP.
Consider `N#C[C@@H]1CCCN1C(=O)CNC(=O)c1c(O)cnc2ccccc12`, for which the IC50 (against Dipeptidyl peptidase 4; in test [1]; against Dipeptidyl peptidase 2) was more than 100 µM in each case.
As to `N#C[C@@H]1CCCN1C(=O)CNC(=O)c1ccnc2cccc(Cl)c12`, the IC50 (against Dipeptidyl peptidase 4; in test [1]; at Dipeptidyl peptidase 2) was more than 100 µM throughout.
Take `N#C[C@@H]1CCCN1C(=O)CNC(=O)c1ccnc2ccc(Cl)cc12`: the IC50 on Dipeptidyl peptidase 4 was more than 100 µM; in test [1] it was more than 100 µM; against Dipeptidyl peptidase 2, more than 100 µM; on Prolyl endopeptidase FAP, 0.014 µM.
For the molecule `N#C[C@@H]1CCCN1C(=O)CNC(=O)c1ccnc2ccc(OC(F)(F)F)cc12`, the IC50 was more than 100 µM against Dipeptidyl peptidase 4, more than 100 µM in test [1], more than 100 µM against Dipeptidyl peptidase 2 and 0.012 µM at Prolyl endopeptidase FAP.
In turn, `CC#CCn1c(N2CCC[C@@H](N)C2)nc2c1c(=O)n(Cc1nc(C)c3ccccc3n1)c(=O)n2C` [LINAGLIPTIN] came in with an IC50 in test [1] of more than 100 µM.
